Experimental data published in patent EP4714938A1, “HDAC1/2 SELECTIVE INHIBITOR AND USE THEREOF” (Wigen Biomedicine Technology (Shanghai) Co., Ltd., priority 2023, dated 2024).
Where two headings read alike, the source gives them in different places.

Key:
Assay in all cases: HDAC enzyme inhibitory activity, FRET method
Assay type in all cases: biochemical
HDAC1 = HDAC1 (Homo sapiens, UniProt Q13547); details: read-out: IC50 HDAC1
Description: (§1) The compounds of the present disclosure were assayed for enzyme inhibitory activity against various subtypes of HDAC enzymes by the FRET method. The various subtypes of HDAC enzymes were obtained either through purification or direct purchase of assay kits.
(§2) The specific method was as follows: The enzyme was added to a 384-well plate, and a reaction buffer was added to the control well. Serially diluted DMSO sample solutions were added to the reaction wells, and the plate was incubated at room temperature for 15 min. Then a chromogenic agent was added to stop the reaction, and fluorescence was generated. The fluorescence intensity was measured using an EnVision multi-label microplate reader (excitation: 355 nm, emission: 460 nm). The endpoint value was read after the color development reached stability. The inhibition IC50 of the compounds was calculated using GraphPad Prism4 software relative to DMSO.

HDAC2 = HDAC2 (Homo sapiens, UniProt Q92769); details: read-out: IC50 HDAC2
Chain of HDAC2 (Q92769 whole entry, species assumed): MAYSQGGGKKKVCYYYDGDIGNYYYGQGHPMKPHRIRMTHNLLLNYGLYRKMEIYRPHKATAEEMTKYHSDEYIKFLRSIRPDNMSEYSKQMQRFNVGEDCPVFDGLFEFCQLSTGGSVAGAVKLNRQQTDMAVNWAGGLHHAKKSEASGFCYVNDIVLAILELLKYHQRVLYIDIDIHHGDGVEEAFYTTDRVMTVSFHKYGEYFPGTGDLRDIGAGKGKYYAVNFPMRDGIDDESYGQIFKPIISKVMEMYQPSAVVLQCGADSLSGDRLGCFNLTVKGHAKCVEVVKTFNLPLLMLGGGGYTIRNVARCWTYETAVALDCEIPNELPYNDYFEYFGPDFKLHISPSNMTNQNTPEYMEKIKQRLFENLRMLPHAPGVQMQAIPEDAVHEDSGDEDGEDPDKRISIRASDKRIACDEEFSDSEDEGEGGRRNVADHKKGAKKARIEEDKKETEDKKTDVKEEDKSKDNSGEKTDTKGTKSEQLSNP
Description: as §1, §2

HDAC3 = HDAC3 (Homo sapiens, UniProt O15379); details: read-out: IC50 HDAC3
Chain of HDAC3 (O15379 whole entry, species assumed): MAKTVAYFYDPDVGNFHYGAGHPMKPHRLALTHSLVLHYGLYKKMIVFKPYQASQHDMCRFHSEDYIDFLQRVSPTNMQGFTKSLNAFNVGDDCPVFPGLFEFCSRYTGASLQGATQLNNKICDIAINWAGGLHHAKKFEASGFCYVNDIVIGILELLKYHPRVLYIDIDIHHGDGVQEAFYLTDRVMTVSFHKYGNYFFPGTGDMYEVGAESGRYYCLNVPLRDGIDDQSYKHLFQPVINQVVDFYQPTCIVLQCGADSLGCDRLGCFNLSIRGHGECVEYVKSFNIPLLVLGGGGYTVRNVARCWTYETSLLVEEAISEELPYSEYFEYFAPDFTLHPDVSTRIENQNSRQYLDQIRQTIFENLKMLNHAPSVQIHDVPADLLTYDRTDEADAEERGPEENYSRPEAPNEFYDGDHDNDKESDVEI
Chain of HDAC3 (Q9Y618 395-489 partner limits assumed, species assumed): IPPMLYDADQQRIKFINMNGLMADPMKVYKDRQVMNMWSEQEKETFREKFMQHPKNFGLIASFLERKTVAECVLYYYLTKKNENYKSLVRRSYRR
Description: as §1, §2

Chain of HDAC1 (Q13547 whole entry, species assumed): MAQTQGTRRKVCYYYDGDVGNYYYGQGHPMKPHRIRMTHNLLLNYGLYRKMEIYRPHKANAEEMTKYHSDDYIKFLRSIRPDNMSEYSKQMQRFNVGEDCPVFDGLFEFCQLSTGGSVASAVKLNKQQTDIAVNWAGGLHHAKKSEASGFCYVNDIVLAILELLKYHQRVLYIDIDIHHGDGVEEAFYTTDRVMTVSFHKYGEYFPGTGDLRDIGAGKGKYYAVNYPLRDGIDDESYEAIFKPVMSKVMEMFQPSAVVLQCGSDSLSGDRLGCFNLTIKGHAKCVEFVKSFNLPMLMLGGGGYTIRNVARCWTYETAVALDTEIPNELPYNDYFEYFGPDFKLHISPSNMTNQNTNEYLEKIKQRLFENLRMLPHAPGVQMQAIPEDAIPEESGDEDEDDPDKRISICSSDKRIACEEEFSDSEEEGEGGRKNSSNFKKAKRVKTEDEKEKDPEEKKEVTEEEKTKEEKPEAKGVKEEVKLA

| SMILES | IC50 (HDAC1; Table 4) | IC50 (HDAC2; Table 4) | IC50 (HDAC3; Table 4) | IC50 (HDAC1; Table 5) | IC50 (HDAC2; Table 5) | IC50 (HDAC3; Table 5) |
| --- | --- | --- | --- | --- | --- | --- |
| CS(C)(=O)=NC1CCC(C(=O)Nc2cc(-c3ccc(Cl)s3)ccc2N)CC1 (stereo not drawn) [Compound 48] | < 500 nM | < 500 nM | > 5000 nM | – | – | – |
| Nc1ccc(-c2ccc(F)cc2)cc1NC(=O)c1ccc(N=S2(=O)CCC2)cc1 [Compound 53] | – | – | – | < 30 nM | 30 to 300 nM | > 3000 nM |
| Nc1ccc(-c2ccc(F)cc2)cc1NC(=O)c1ccc(N=S2(=O)CC3(CCC3)C2)cc1 [Compound 54] | – | – | – | < 30 nM | 30 to 300 nM | > 3000 nM |
| Nc1ccc(-c2ccc(F)cc2)cc1NC(=O)c1ccc(N=S2(=O)CC3(CNC3)C2)cc1 [Compound 55] | – | – | – | < 30 nM | 30 to 300 nM | > 3000 nM |
| CN1CC2(C1)CS(=O)(=Nc1ccc(C(=O)Nc3cc(-c4ccc(F)cc4)ccc3N)cc1)C2 [Compound 56] | – | – | – | < 30 nM | 30 to 300 nM | > 3000 nM |
| Nc1ccc(-c2ccc(F)cc2)cc1NC(=O)c1ccc(N=S2(=O)CCCCC2)cc1 [Compound 58] | – | – | – | < 30 nM | 30 to 300 nM | > 3000 nM |
| CCS(=O)(CC)=Nc1ccc(C(=O)Nc2cc(-c3ccc(F)cc3)ccc2N)cc1 [Compound 59] | – | – | – | < 30 nM | 30 to 300 nM | > 3000 nM |
| Nc1ccc(-c2ccc(F)cc2)cc1NC(=O)c1ccc(N=S2(=O)CCOCC2)cc1 [Compound 60] | – | – | – | < 30 nM | 30 to 300 nM | > 3000 nM |
| Nc1ccc(-c2ccc(F)cc2)cc1NC(=O)c1ccc(N=S2(=O)CCC(F)(F)CC2)cc1 [Compound 63] | – | – | – | < 30 nM | 30 to 300 nM | > 3000 nM |
| Nc1ccc(-c2ccc(F)cc2)cc1NC(=O)c1ccc(N=S2(=O)CCC(F)(F)C2)cc1 (stereo not drawn) [Compound 65] | – | – | – | < 30 nM | 30 to 300 nM | > 3000 nM |
| [2H]C([2H])([2H])N1CCS(=O)(=Nc2ccc(C(=O)Nc3cc(-c4ccc(F)cc4)ccc3N)cc2)CC1 [Compound 68] | < 500 nM | < 500 nM | > 5000 nM | < 30 nM | 30 to 300 nM | > 3000 nM |
| CCN1CCS(=O)(=Nc2ccc(C(=O)Nc3cc(-c4ccc(F)cc4)ccc3N)cc2)CC1 [Compound 69] | – | – | – | < 30 nM | 30 to 300 nM | > 3000 nM |
| Nc1ccc(-c2ccc(F)cc2)cc1NC(=O)c1ccc(N=S2(=O)CCN(CC3CC3)CC2)cc1 [Compound 71] | < 500 nM | < 500 nM | > 5000 nM | – | – | – |
| CN1CC2(CCS(=O)(=Nc3ccc(C(=O)Nc4cc(-c5ccc(F)cc5)ccc4N)cc3)CC2)C1 [Compound 72] | < 500 nM | < 500 nM | > 5000 nM | < 30 nM | 30 to 300 nM | > 3000 nM |
| Cc1nn(C)cc1CN1CCS(=O)(=Nc2ccc(C(=O)Nc3cc(-c4ccc(F)cc4)ccc3N)cc2)CC1 [Compound 73] | < 500 nM | < 500 nM | > 5000 nM | < 30 nM | 30 to 300 nM | > 3000 nM |
| CN1CC2(C1)CS(=O)(=Nc1ccc(C(=O)Nc3cc(-c4cccs4)ccc3N)cc1)C2 [Compound 79] | < 500 nM | < 500 nM | > 5000 nM | – | – | – |
| Nc1ccc(-c2cccs2)cc1NC(=O)c1ccc(N=S2(=O)CCCC2)cc1 [Compound 80] | < 500 nM | < 500 nM | > 5000 nM | – | – | – |
| CN1CCS(=O)(=Nc2ccc(C(=O)Nc3cc(-c4cccs4)ccc3N)cc2)CC1 [Compound 89] | < 500 nM | < 500 nM | > 5000 nM | – | – | – |
| [2H]C([2H])([2H])N1CCS(=O)(=Nc2ccc(C(=O)Nc3cc(-c4cccs4)ccc3N)cc2)CC1 [Compound 90] | < 500 nM | < 500 nM | > 5000 nM | – | – | – |
| CN1CC2(CCS(=O)(=Nc3ccc(C(=O)Nc4cc(-c5cccs5)ccc4N)cc3)CC2)C1 [Compound 91] | < 500 nM | < 500 nM | > 5000 nM | – | – | – |
| Nc1ccc(-c2ccc(F)s2)cc1NC(=O)c1ccc(N=S2(=O)CCC2)cc1 [Compound 92] | < 500 nM | < 500 nM | > 5000 nM | – | – | – |
| Nc1ccc(-c2ccc(F)s2)cc1NC(=O)c1ccc(N=S2(=O)CC3(CCC3)C2)cc1 [Compound 93] | < 500 nM | < 500 nM | > 5000 nM | – | – | – |
| Nc1ccc(-c2ccc(F)s2)cc1NC(=O)c1ccc(N=S2(=O)CC3(CNC3)C2)cc1 [Compound 94] | < 500 nM | < 500 nM | > 5000 nM | – | – | – |
| CN1CC2(C1)CS(=O)(=Nc1ccc(C(=O)Nc3cc(-c4ccc(F)s4)ccc3N)cc1)C2 [Compound 95] | < 500 nM | < 500 nM | > 5000 nM | – | – | – |
| Nc1ccc(-c2ccc(F)s2)cc1NC(=O)c1ccc(N=S2(=O)CCCC2)cc1 [Compound 96] | < 500 nM | < 500 nM | > 5000 nM | – | – | – |
